Measurements published in patent US12371454B2, “Cyclic peptide compound having Kras inhibitory action” (priority 2019, dated 2025).
Positions of bridges follow the written chain, without caps; N, C: chain ends. Non-standard residues stand in square brackets, D forms with d. Residues, ends and D or L forms follow the SMILES beside them. *: point of attachment. hPhe(3-Cl-4-CF3) = N[C@@H](CCc1ccc(C(F)(F)F)c(Cl)c1)C(=O)O; hPhe(3-F,4-CF3) = N[C@@H](CCc1ccc(C(F)(F)F)c(F)c1)C(=O)O; NMePhe(4-CF3) = CN[C@@H](Cc1ccc(C(F)(F)F)cc1)C(=O)O; hPhe(4-CF3) = N[C@@H](CCc1ccc(C(F)(F)F)cc1)C(=O)O; 3Oxa8azabicyclo(3.2.1)octane = C1CC2COCC1N2*; NMePhe(4-Me) = CN[C@@H](Cc1ccc(C)cc1)C(=O)O; hPhe(4-Cl) = N[C@@H](CCc1ccc(Cl)cc1)C(=O)O; NMeAla(cPent) = CN[C@@H](CC1CCCC1)C(=O)O; NMeGly(cPent) = CN[C@H](C(=O)O)C1CCCC1; NMeCha = CN[C@@H](CC1CCCCC1)C(=O)O; NMeChg = CN[C@H](C(=O)O)C1CCCCC1; NMeI = CC[C@H](C)[C@H](NC)C(=O)O; N(CH2CH2)2CF2 = FC1(F)CCN(*)CC1; NMeD = CN[C@@H](CC(=O)O)C(=O)O; NMeL = CN[C@@H](CC(C)C)C(=O)O; NMeNva = CCC[C@H](NC)C(=O)O; NMeV = CN[C@H](C(=O)O)C(C)C; NMeAbu = CC[C@H](NC)C(=O)O; NMeS = CN[C@@H](CO)C(=O)O; Morpholide = C1CN(*)CCO1; NMeA = CN[C@@H](C)C(=O)O; Pyrrolidide = C1CCN(*)C1; Ac5c = NC1(C(=O)O)CCCC1; Aze = O=C(O)[C@@H]1CCN1; Sar = CNCC(=O)O; Propyl = CCC*

What was measured:
[1] = target: T1, Kras and SOS1 (biotin-tagged human Kras loaded with GDP, His-tagged human SOS1) (Homo sapiens, UniProt P01116, G12D); experiment: Protein-protein interaction inhibition between Kras and SOS1 (KrasGl2D-SOS PPI) using AlphaScreen; format: binding; conditions: AlphaScreen; biotin-tagged human Kras loaded with GDP, His-tagged human SOS1; read-out: KRAS G12D-SOS PPI IC50
T1 construct: made in house; host or cells: E. coli (stated for Kras only)
T1 sequence (P01116 1-188 isoform P01116-2 G12D): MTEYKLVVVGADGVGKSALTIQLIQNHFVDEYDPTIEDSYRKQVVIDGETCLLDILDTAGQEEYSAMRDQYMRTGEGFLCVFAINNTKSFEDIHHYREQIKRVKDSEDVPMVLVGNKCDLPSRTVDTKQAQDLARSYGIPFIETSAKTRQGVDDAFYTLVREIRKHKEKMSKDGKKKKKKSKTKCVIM
In short: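 Energy transfer from nickel-chelate donor beads bound to His-SOS1 to streptavidin acceptor beads bound to biotin-Kras, expressed in E. coli and loaded with GDP after purification, was monitored. Donors were excited at 680 nm; singlet oxygen reaching acceptors gave emission read at 520-620 nm.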

[2] = system: Human pancreatic cancer cell line AsPC-1; experiment: Measurement of AsPC-1 cell growth inhibition (AsPC-1 CGI); format: cell-based; conditions: 96 h
In short: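 AsPC-1 cells in 15% FBS RPMI-1640 were exposed to test compound for 96 hours at 37° C, with CellTiter-Glo as endpoint.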

SMILES | IC50 [1] | IC50 [2]
CC[C@H](C)[C@@H]1NC(=O)[C@H](CC(C)C)N(C)C(=O)C[C@@H](C(=O)N2C3CCC2COC3)N(C)C(=O)[C@H]([C@@H](C)CC)N(C)C(=O)C2(CCCC2)NC(=O)[C@@H]2CCCN2C(=O)[C@H](CCc2ccc(C(F)(F)F)c(Cl)c2)NC(=O)CN(C)C(=O)[C@H](CC2CCCCC2)N(C)C(=O)CN(C)C(=O)CN(C)C1=O [Compound 1938] ([NMeL]I[Sar][Sar][NMeCha][Sar][hPhe(3-Cl-4-CF3)]P[Ac5c][NMeI][NMeD]-{3Oxa8azabicyclo(3.2.1)octane}; lactam N-11) | 0.76 nM | 20 to 50 nM
CC[C@H](C)[C@@H]1NC(=O)[C@H](CC(C)C)N(C)C(=O)C[C@@H](C(=O)N2CCCC2)N(C)C(=O)[C@H](C2CCCCC2)N(C)C(=O)C2(CCCC2)NC(=O)[C@@H]2CCCN2C(=O)[C@H](CCc2ccc(C(F)(F)F)cc2)NC(=O)CN(C)C(=O)[C@H](CC2CCCCC2)N(C)C(=O)CN(C)C(=O)CN(C)C1=O [Compound 1939] ([NMeL]I[Sar][Sar][NMeCha][Sar][hPhe(4-CF3)]P[Ac5c][NMeChg][NMeD]-Pyrrolidide; lactam N-11) | 0.71 nM | 100 to 500 nM
CC[C@H](C)[C@@H]1NC(=O)[C@H](CC(C)C)N(C)C(=O)C[C@@H](C(=O)N2C3CCC2COC3)N(C)C(=O)[C@H](C2CCCCC2)N(C)C(=O)C2(CCCC2)NC(=O)[C@@H]2CCCN2C(=O)[C@H](CCc2ccc(C(F)(F)F)cc2)NC(=O)CN(C)C(=O)[C@H](CC2CCCCC2)N(C)C(=O)CN(C)C(=O)CN(C)C1=O [Compound 1940] ([NMeL]I[Sar][Sar][NMeCha][Sar][hPhe(4-CF3)]P[Ac5c][NMeChg][NMeD]-{3Oxa8azabicyclo(3.2.1)octane}; lactam N-11) | 1.6 nM | 100 to 500 nM
CC[C@H](C)[C@@H]1NC(=O)[C@H](CC(C)C)N(C)C(=O)C[C@@H](C(=O)N2CCOCC2)N(C)C(=O)[C@H](C2CCCCC2)N(C)C(=O)C2(CCCC2)NC(=O)[C@@H]2CCCN2C(=O)[C@H](CCc2ccc(Cl)cc2)NC(=O)CN(C)C(=O)[C@H](CC2CCCCC2)N(C)C(=O)CN(C)C(=O)CN(C)C1=O [Compound 1941] ([NMeL]I[Sar][Sar][NMeCha][Sar][hPhe(4-Cl)]P[Ac5c][NMeChg][NMeD]-Morpholide; lactam N-11) | 1.5 nM | 50 to 100 nM
CC[C@H](C)[C@@H]1NC(=O)[C@H](CC(C)C)N(C)C(=O)C[C@@H](C(=O)N2CCOCC2)N(C)C(=O)[C@H](C2CCCCC2)N(C)C(=O)C2(CCCC2)NC(=O)[C@@H]2CCCN2C(=O)[C@H](CCc2ccc(C(F)(F)F)cc2)NC(=O)CN(C)C(=O)[C@H](CC2CCCCC2)N(C)C(=O)CN(C)C(=O)CN(C)C1=O [Compound 1947] ([NMeL]I[Sar][Sar][NMeCha][Sar][hPhe(4-CF3)]P[Ac5c][NMeChg][NMeD]-Morpholide; lactam N-11) | 1.2 nM | 50 to 100 nM
CC[C@H](C)[C@@H]1NC(=O)[C@H](CC(C)C)N(C)C(=O)C[C@@H](C(=O)N2CCOCC2)N(C)C(=O)[C@H](C2CCCCC2)N(C)C(=O)C2(CCCC2)NC(=O)[C@@H]2CCCN2C(=O)[C@H](CCc2ccc(C(F)(F)F)c(Cl)c2)NC(=O)CN(C)C(=O)[C@H](Cc2ccc(C(F)(F)F)cc2)N(C)C(=O)CN(C)C(=O)CN(C)C1=O [Compound 1948] ([NMeL]I[Sar][Sar][NMePhe(4-CF3)][Sar][hPhe(3-Cl-4-CF3)]P[Ac5c][NMeChg][NMeD]-Morpholide; lactam N-11) | 0.54 nM | 20 to 50 nM
CCCOC[C@H]1C(=O)N(C)CC(=O)N[C@@H](CCc2ccc(C(F)(F)F)c(Cl)c2)C(=O)N2CCC[C@H]2C(=O)NC2(CCCC2)C(=O)N(C)[C@@H](C2CCCCC2)C(=O)N(C)[C@H](C(=O)N2CCOCC2)CC(=O)N(C)[C@@H](CCC)C(=O)N[C@@H]([C@@H](C)CC)C(=O)N(C)CC(=O)N(C)CC(=O)N1C [Compound 1949] ([NMeNva]I[Sar][Sar][NMeS](Propyl)[Sar][hPhe(3-Cl-4-CF3)]P[Ac5c][NMeChg][NMeD]-Morpholide; lactam N-11) | 0.6 nM | 100 to 500 nM
CC[C@H](C)[C@@H]1NC(=O)[C@H](CC(C)C)N(C)C(=O)C[C@@H](C(=O)N2C3CCC2COC3)N(C)C(=O)[C@H](C2CCCCC2)N(C)C(=O)C2(CCCC2)NC(=O)[C@@H]2CCCN2C(=O)[C@H](CCc2ccc(Cl)cc2)NC(=O)CN(C)C(=O)[C@H](CC2CCCCC2)N(C)C(=O)CN(C)C(=O)CN(C)C1=O [Compound 1950] ([NMeL]I[Sar][Sar][NMeCha][Sar][hPhe(4-Cl)]P[Ac5c][NMeChg][NMeD]-{3Oxa8azabicyclo(3.2.1)octane}; lactam N-11) | 2.8 nM | 20 to 50 nM
CC[C@H](C)[C@@H]1NC(=O)[C@H](CC(C)C)N(C)C(=O)C[C@@H](C(=O)N2C3CCC2COC3)N(C)C(=O)[C@H](C(C)C)N(C)C(=O)C2(CCCC2)NC(=O)[C@@H]2CCCN2C(=O)[C@H](CCc2ccc(C(F)(F)F)c(Cl)c2)NC(=O)CN(C)C(=O)[C@H](CC2CCCCC2)N(C)C(=O)CN(C)C(=O)CN(C)C1=O [Compound 1954] ([NMeL]I[Sar][Sar][NMeCha][Sar][hPhe(3-Cl-4-CF3)]P[Ac5c][NMeV][NMeD]-{3Oxa8azabicyclo(3.2.1)octane}; lactam N-11) | 2.3 nM | 100 to 500 nM
CC[C@H](C)[C@@H]1NC(=O)[C@H](CC(C)C)N(C)C(=O)C[C@@H](C(=O)N(C)C)N(C)C(=O)[C@H](C2CCCC2)N(C)C(=O)C2(CCCC2)NC(=O)[C@H](CC(=O)N2CCC(F)(F)CC2)N(C)C(=O)[C@H](CCc2ccc(C(F)(F)F)c(Cl)c2)NC(=O)CN(C)C(=O)[C@H](CC2CCCCC2)N(C)C(=O)[C@@H]2CCN2C(=O)[C@H](C)N(C)C1=O [Compound 1955] ([NMeL]I[NMeA][Aze][NMeCha][Sar][hPhe(3-Cl-4-CF3)][NMeD](N(CH2CH2)2CF2)[Ac5c][NMeGly(cPent)][NMeD]-NMe2; lactam N-11) | 1.5 nM | 100 to 500 nM
CCCOC[C@H]1C(=O)N(C)CC(=O)N[C@@H](CCc2ccc(C(F)(F)F)c(Cl)c2)C(=O)N2CCC[C@H]2C(=O)NC2(CCCC2)C(=O)N(C)[C@@H](C2CCCCC2)C(=O)N(C)[C@H](C(=O)N2C3CCC2COC3)CC(=O)N(C)[C@@H](CC)C(=O)N[C@@H]([C@@H](C)CC)C(=O)N(C)CC(=O)N(C)CC(=O)N1C [Compound 1956] ([NMeAbu]I[Sar][Sar][NMeS](Propyl)[Sar][hPhe(3-Cl-4-CF3)]P[Ac5c][NMeChg][NMeD]-{3Oxa8azabicyclo(3.2.1)octane}; lactam N-11) | 0.76 nM | 100 to 500 nM
CC[C@H](C)[C@@H]1NC(=O)[C@H](CC(C)C)N(C)C(=O)C[C@@H](C(=O)N2C3CCC2COC3)N(C)C(=O)[C@H](C2CCCCC2)N(C)C(=O)C2(CCCC2)NC(=O)[C@@H]2CCCN2C(=O)[C@H](CCc2ccc(C(F)(F)F)c(F)c2)NC(=O)CN(C)C(=O)[C@H](CC2CCCCC2)N(C)C(=O)CN(C)C(=O)CN(C)C1=O [Compound 1957] ([NMeL]I[Sar][Sar][NMeCha][Sar][hPhe(3-F,4-CF3)]P[Ac5c][NMeChg][NMeD]-{3Oxa8azabicyclo(3.2.1)octane}; lactam N-11) | 1.2 nM | 100 to 500 nM
CC[C@H](C)[C@@H]1NC(=O)[C@H](CC)N(C)C(=O)C[C@@H](C(=O)N2CCCC2)N(C)C(=O)[C@H](C2CCCCC2)N(C)C(=O)C2(CCCC2)NC(=O)[C@@H]2CCCN2C(=O)[C@H](CCc2ccc(C(F)(F)F)c(Cl)c2)NC(=O)CN(C)C(=O)[C@H](CC2CCCCC2)N(C)C(=O)CN(C)C(=O)CN(C)C1=O [Compound 1958] ([NMeAbu]I[Sar][Sar][NMeCha][Sar][hPhe(3-Cl-4-CF3)]P[Ac5c][NMeChg][NMeD]-Pyrrolidide; lactam N-11) | 0.45 nM | 20 to 50 nM
CC[C@H](C)[C@@H]1NC(=O)[C@H](CC)N(C)C(=O)C[C@@H](C(=O)N2C3CCC2COC3)N(C)C(=O)[C@H](C2CCCCC2)N(C)C(=O)C2(CCCC2)NC(=O)[C@@H]2CCCN2C(=O)[C@H](CCc2ccc(C(F)(F)F)c(Cl)c2)NC(=O)CN(C)C(=O)[C@H](Cc2ccc(C)cc2)N(C)C(=O)CN(C)C(=O)CN(C)C1=O [Compound 1963] ([NMeAbu]I[Sar][Sar][NMePhe(4-Me)][Sar][hPhe(3-Cl-4-CF3)]P[Ac5c][NMeChg][NMeD]-{3Oxa8azabicyclo(3.2.1)octane}; lactam N-11) | 0.63 nM | 50 to 100 nM
CC[C@H](C)[C@@H]1NC(=O)[C@H](CC(C)C)N(C)C(=O)C[C@@H](C(=O)N2CCOCC2)N(C)C(=O)[C@H](C2CCCCC2)N(C)C(=O)C2(CCCC2)NC(=O)[C@@H]2CCCN2C(=O)[C@H](CCc2ccc(C(F)(F)F)c(F)c2)NC(=O)CN(C)C(=O)[C@H](CC2CCCCC2)N(C)C(=O)CN(C)C(=O)CN(C)C1=O [Compound 1965] ([NMeL]I[Sar][Sar][NMeCha][Sar][hPhe(3-F,4-CF3)]P[Ac5c][NMeChg][NMeD]-Morpholide; lactam N-11) | 0.55 nM | 50 to 100 nM
CC[C@H](C)[C@@H]1NC(=O)[C@H](CC(C)C)N(C)C(=O)C[C@@H](C(=O)N2CCCC2)N(C)C(=O)[C@H](C2CCCCC2)N(C)C(=O)C2(CCCC2)NC(=O)[C@@H]2CCCN2C(=O)[C@H](CCc2ccc(Cl)cc2)NC(=O)CN(C)C(=O)[C@H](CC2CCCCC2)N(C)C(=O)CN(C)C(=O)CN(C)C1=O [Compound 1968] ([NMeL]I[Sar][Sar][NMeCha][Sar][hPhe(4-Cl)]P[Ac5c][NMeChg][NMeD]-Pyrrolidide; lactam N-11) | 1.2 nM | 50 to 100 nM
CC[C@H](C)[C@@H]1NC(=O)[C@H](CC(C)C)N(C)C(=O)C[C@@H](C(=O)N2CCCC2)N(C)C(=O)[C@H](C2CCCCC2)N(C)C(=O)C2(CCCC2)NC(=O)[C@@H]2CCCN2C(=O)[C@H](CCc2ccc(C(F)(F)F)c(Cl)c2)NC(=O)CN(C)C(=O)[C@H](CC2CCCC2)N(C)C(=O)CN(C)C(=O)CN(C)C1=O [Compound 1969] ([NMeL]I[Sar][Sar][NMeAla(cPent)][Sar][hPhe(3-Cl-4-CF3)]P[Ac5c][NMeChg][NMeD]-Pyrrolidide; lactam N-11) | 0.61 nM | 50 to 100 nM
